From ChEMBL document CHEMBL1144646, “Imidazole moiety replacements in the 3-(1H-benzo[d]imidazol-2-yl)pyridin-2(1H)-one inhibitors of insulin-like growth factor receptor-1 (IGF-1R) to improve cytochrome P450 profile” (Bioorg Med Chem Lett, 2007)

Key:
Cytochrome P450 2C19 = Cytochrome P450 2C19 (Homo sapiens, UniProt P33261); assay: Inhibition of CYP2C19 in microsomes; format: ADME
Cytochrome P450 2C9 = Cytochrome P450 2C9 (Homo sapiens, UniProt P11712); assay: Inhibition of CYP2C9 in microsomes; format: ADME
Cytochrome P450 2C9, sequence (P11712 whole entry): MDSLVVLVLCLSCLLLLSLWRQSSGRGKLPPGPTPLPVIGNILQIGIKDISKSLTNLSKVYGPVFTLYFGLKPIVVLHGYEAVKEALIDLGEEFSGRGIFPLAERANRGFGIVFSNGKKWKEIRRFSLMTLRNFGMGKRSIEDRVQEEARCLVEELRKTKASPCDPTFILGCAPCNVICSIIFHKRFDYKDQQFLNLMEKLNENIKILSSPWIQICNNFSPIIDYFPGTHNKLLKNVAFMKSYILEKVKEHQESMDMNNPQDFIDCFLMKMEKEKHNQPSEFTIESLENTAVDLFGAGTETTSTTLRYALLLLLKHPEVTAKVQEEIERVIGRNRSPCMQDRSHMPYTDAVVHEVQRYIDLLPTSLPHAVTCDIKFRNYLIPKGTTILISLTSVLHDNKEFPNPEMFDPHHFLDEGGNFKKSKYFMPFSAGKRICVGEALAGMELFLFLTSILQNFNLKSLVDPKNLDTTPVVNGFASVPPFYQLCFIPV

Cytochrome P450 1A2 = target: T1, Cytochrome P450 1A2 (Homo sapiens, UniProt P05177); assay: Inhibition of CYP1A2 in microsomes; format: ADME
T1 sequence (P05177 whole entry): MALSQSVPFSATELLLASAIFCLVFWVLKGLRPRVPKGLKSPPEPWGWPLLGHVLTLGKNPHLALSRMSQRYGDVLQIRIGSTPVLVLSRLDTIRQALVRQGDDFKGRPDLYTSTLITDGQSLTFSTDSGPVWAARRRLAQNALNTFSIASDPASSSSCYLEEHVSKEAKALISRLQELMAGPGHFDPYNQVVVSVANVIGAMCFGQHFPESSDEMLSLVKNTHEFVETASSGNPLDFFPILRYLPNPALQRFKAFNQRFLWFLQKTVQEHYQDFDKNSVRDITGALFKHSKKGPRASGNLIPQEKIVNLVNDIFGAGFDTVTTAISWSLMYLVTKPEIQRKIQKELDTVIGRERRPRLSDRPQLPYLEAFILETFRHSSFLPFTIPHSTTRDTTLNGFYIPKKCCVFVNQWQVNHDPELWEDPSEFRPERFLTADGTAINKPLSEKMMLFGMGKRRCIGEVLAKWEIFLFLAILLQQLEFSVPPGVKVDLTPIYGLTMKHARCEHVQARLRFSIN

Cytochrome P450 3A4 = Cytochrome P450 3A4 (Homo sapiens, UniProt P08684); assay: Inhibition of CYP3A4 in microsomes
Cytochrome P450 3A4, sequence (P08684 whole entry): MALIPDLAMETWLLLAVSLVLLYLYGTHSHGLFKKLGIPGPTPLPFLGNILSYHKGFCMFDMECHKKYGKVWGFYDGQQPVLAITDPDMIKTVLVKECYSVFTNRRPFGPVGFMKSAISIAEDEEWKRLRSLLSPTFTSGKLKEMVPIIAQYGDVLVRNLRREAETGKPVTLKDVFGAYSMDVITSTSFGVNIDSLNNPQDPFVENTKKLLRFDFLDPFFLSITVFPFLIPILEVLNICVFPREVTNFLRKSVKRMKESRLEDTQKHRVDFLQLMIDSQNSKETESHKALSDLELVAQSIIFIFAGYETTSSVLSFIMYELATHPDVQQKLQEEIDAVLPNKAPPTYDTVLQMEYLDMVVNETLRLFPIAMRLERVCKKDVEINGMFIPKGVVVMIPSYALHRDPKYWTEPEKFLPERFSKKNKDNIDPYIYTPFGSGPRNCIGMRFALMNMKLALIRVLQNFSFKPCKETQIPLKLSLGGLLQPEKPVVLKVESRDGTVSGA

Cytochrome P450 2D6 = Cytochrome P450 2D6 (Homo sapiens, UniProt P10635); assay: Inhibition of CYP2D6 in microsomes; format: ADME
Cytochrome P450 2D6, sequence (P10635 whole entry): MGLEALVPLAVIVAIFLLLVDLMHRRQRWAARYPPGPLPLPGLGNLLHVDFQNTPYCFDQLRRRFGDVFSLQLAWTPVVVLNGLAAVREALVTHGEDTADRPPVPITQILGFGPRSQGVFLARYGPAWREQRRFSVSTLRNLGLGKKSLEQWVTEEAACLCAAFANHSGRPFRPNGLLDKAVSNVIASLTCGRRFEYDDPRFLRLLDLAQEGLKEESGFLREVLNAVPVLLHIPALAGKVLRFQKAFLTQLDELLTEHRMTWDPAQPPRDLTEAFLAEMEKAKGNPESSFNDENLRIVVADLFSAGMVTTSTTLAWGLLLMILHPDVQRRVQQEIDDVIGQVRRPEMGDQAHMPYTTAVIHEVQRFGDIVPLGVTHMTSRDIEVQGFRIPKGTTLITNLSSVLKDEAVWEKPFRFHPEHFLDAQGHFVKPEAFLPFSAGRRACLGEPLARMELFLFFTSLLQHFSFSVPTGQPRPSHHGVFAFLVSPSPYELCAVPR

Cytochrome P450 2C19, sequence (P33261 whole entry): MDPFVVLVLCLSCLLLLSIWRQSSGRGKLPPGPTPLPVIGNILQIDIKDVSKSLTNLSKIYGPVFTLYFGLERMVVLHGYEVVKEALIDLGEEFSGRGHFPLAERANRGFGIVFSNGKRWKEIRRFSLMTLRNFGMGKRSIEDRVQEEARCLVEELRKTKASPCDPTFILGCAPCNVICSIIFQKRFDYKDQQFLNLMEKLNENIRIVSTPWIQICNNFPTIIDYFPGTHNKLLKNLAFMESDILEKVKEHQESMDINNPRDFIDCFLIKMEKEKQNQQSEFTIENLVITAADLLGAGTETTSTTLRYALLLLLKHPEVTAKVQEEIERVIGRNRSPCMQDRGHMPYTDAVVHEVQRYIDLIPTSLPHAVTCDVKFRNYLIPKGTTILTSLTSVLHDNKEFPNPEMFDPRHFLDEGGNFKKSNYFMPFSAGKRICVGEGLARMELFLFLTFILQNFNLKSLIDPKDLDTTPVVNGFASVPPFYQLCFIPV

Structure (SMILES) | IC50 (Cytochrome P450 2C19) | IC50 (Cytochrome P450 2C9) | IC50 (Cytochrome P450 1A2) | IC50 (Cytochrome P450 3A4) | IC50 (Cytochrome P450 2D6)
Cc1cc(C2=NC(C)(C)CN2)cc2[nH]c(-c3c(NCC(O)c4cccc(Cl)c4)cc[nH]c3=O)nc12 (configuration not stated) | 5.1 µM | 47 µM | 11 µM | 13 µM | 
Cc1cc(C2=NCCCN2)cc2[nH]c(-c3c(NCC(O)c4cccc(Cl)c4)cc[nH]c3=O)nc12 (configuration not stated) | 8.5 µM | 100 µM | 20 µM | 16 µM | 
Cc1cc(-n2ccnc2)cc2[nH]c(-c3c(N[C@H](CO)Cc4ccccc4)cc[nH]c3=O)nc12 | < 0.04 µM | < 0.04 µM | < 0.04 µM | 0.06 µM | 0.56 µM
Cc1cc(-n2ccnc2)cc2[nH]c(-c3c(NCC(O)c4cccc(Cl)c4)cc[nH]c3=O)nc12 (configuration not stated) | < 0.04 µM | < 0.04 µM | < 0.04 µM | < 0.046 µM | 
Cc1cc(C2=NCCN2C)cc2[nH]c(-c3c(NCC(O)c4cccc(Cl)c4)cc[nH]c3=O)nc12 (configuration not stated) | 17 µM | 91 µM | 53 µM | 35 µM | 
Cc1cc(C2=NC(C)CN2)cc2[nH]c(-c3c(NCC(O)c4cccc(Cl)c4)cc[nH]c3=O)nc12 (configuration not stated) | 4.7 µM | 67 µM | 10 µM |  | 
Cc1cc(-n2ccnc2)cc2nc(-c3c(NCc4ccccn4)cc[nH]c3=O)[nH]c12 | 0.1 µM | < 0.03 µM | < 0.03 µM | 0.08 µM | 5.7 µM
Cc1cc(Br)cc2[nH]c(-c3c(N[C@H](CO)Cc4ccccc4)cc[nH]c3=O)nc12 | 0.32 µM | 0.72 µM | 0.052 µM | 3.1 µM | 
CNC(=N)c1cc(C)c2nc(-c3c(NCC(O)c4cccc(Cl)c4)cc[nH]c3=O)[nH]c2c1 (configuration not stated) | 3.9 µM | 76 µM | 25 µM | 15 µM | 

Continued by falling IC50 (Cytochrome P450 2C19), values first:

IC50 (Cytochrome P450 2C19) | IC50 (Cytochrome P450 2C9) | IC50 (Cytochrome P450 1A2) | IC50 (Cytochrome P450 3A4) | Structure (SMILES) | IC50 (Cytochrome P450 2D6)
3.5 µM | 8.1 µM | 93 µM | 10 µM | Cc1cc(C(=O)NC2CC2)cc2[nH]c(-c3c(NCC(O)c4cccc(Cl)c4)cc[nH]c3=O)nc12 (configuration not stated) | 
2.2 µM | 11 µM | 12 µM | 6.8 µM | COc1ccc(-c2cc(C)c3nc(-c4c(N[C@H](CO)Cc5ccccc5)cc[nH]c4=O)[nH]c3c2)cc1 | 
2.1 µM | 2.9 µM | 21 µM | 3.7 µM | CNC(=O)c1cc(C)c2nc(-c3c(NCC(O)c4cccc(Cl)c4)cc[nH]c3=O)[nH]c2c1 (configuration not stated) | 
2 µM | 7.8 µM | 5.8 µM | 0.36 µM | Cc1c[nH]c(-c2cc(C)c3[nH]c(-c4c(NCC(O)c5cccc(Cl)c5)cc[nH]c4=O)nc3c2)n1 (configuration not stated) | 
1.7 µM | 2.8 µM | 15 µM | 2.2 µM | Cc1cc(C(=O)N(C)C)cc2[nH]c(-c3c(NCC(O)c4cccc(Cl)c4)cc[nH]c3=O)nc12 (configuration not stated) | 
1.3 µM | 6.6 µM | 59 µM | 11 µM | Cc1cc(C(=O)NC2CCCCC2)cc2[nH]c(-c3c(NCC(O)c4cccc(Cl)c4)cc[nH]c3=O)nc12 (configuration not stated) | 
1 µM | 4 µM | 3.2 µM | 6.3 µM | Cc1cc(-c2ccc(F)cc2)cc2[nH]c(-c3c(N[C@H](CO)Cc4ccccc4)cc[nH]c3=O)nc12 | 
0.53 µM | 2.3 µM | 0.58 µM | 3.6 µM | Cc1cc(-c2ccccc2)cc2[nH]c(-c3c(N[C@H](CO)Cc4ccccc4)cc[nH]c3=O)nc12 | 
0.48 µM | 3.5 µM | 9.8 µM | 1.6 µM | Cc1cc(C(=O)NC2CCCC2)cc2[nH]c(-c3c(NCC(O)c4cccc(Cl)c4)cc[nH]c3=O)nc12 (configuration not stated) | 
0.26 µM | 1.5 µM | 0.38 µM | 0.71 µM | Cc1cccc2[nH]c(-c3c(NCC(O)c4cccc(Cl)c4)cc[nH]c3=O)nc12 (configuration not stated) | 
